Source: patent publication US20050245399A1, “Pyrazole derivatives as herbicidal compositions containing them” (ISHIHARA SANGYO KAISHA, LTD., priority 2004, published 2005)

Experiments:
Assay type in all cases: in vivo
[1] = tested on: green foxtail (Setaria viridis L.), SETVI; assay: Test Example 2 post-emergence (foliage treatment) herbicidal activity, SETVI; details: 63 g a.i./ha
Outline: (§1)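 A small sprayer delivered the diluted WP or EC formulation (500 L/ha water, 0.1% v/v spreader) over emerged seedlings in upland soil pots. Damage relative to untreated plants was graded visually from 0 to 100% three weeks or so later (days 20-23).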

[2] = tested on: velvetleaf (Abutilon theophrasti): ABUTH; assay: Test Example 1 pre-emergence herbicidal activity, ABUTH; details: Rate 63 g a.i./ha, visually observed 20th to 23rd day after application
Outline: (§2)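 Seeds go into pots of upland field soil; one day on, the diluted formulation (500 L/ha water) is sprayed pre-emergence. Effects are scored visually 20 to 23 days post-application as 0–100% growth control.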

[3] = tested on: redroot pigweed (Amaranthus retroflexus L.), AMARE; assay: Test Example 2 post-emergence (foliage treatment) herbicidal activity, AMARE; details: 63 g a.i./ha
Outline: (§3)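 Sow in upland soil; grow to leaf stage (barnyardgrass 1.1-2.1, crabgrass 1.0-2.0, pigweed 0.1-1.5, rice 1.0-2); spray foliage at a fixed active ingredient rate in 500 L/ha water with 0.1% (v/v) spreader; rate growth control visually at 20-23 days on a 0-100% scale.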

[4] = tested on: japanese bulrush (Scirpus juncoides: SCPJO); assay: Test Example 3 water application herbicidal activity (paddy), SCPJO; details: 63 g a.i./ha, water application under submerged condition at 0.5 leaf stage, visually observed 14th day after application; 0 = untreated control, 100 = complete kill
Outline: (§4)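 Submerged application in flooded paddy soil (3–4 cm water); weeds treated at 0.5-leaf stage, transplanted rice 4 d after transplanting. Scored visually as % growth control: weeds at 14 d, rice at 21 d.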

[5] = tested on: wheat (Triticum aestivum L.), TRZAX; assay: Test Example 2 post-emergence (foliage treatment) herbicidal activity, TRZAX; details: 63 g a.i./ha
Outline: as §1

[6] = tested on: japanese ribbon wapato (Sagittaria pygmaea: SA GPY); assay: Test Example 3 water application herbicidal activity (paddy), SAGPY; details: 63 g a.i./ha, water application under submerged condition, tubers planted, visually observed 14th day after application; 0 = untreated control, 100 = complete kill
Outline: as §4

[7] = tested on: barnyardgrass (Echinochloa crus-galli L.), ECHCG; assay: Test Example 2 post-emergence (foliage treatment) herbicidal activity, ECHCG; details: 63 g a.i./ha
Outline: as §3

[8] = tested on: prickly sida (Sida spinosa L.): SEDSP; assay: Test Example 1 pre-emergence herbicidal activity, SIDSP; details: Rate 63 g a.i./ha, visually observed 20th to 23rd day after application
Outline: as §2

[9] = tested on: crabgrass (Digitaria sanguinalis L.): DIGSA; assay: Test Example 1 pre-emergence herbicidal activity, DIGSA; details: Rate 63 g a.i./ha, visually observed 20th to 23rd day after application
Outline: as §2

[10] = tested on: rice (Oryza sativa L.): ORYSA; assay: Test Example 1 pre-emergence herbicidal activity, ORYSA; details: Rate 63 g a.i./ha, visually observed 20th to 23rd day after application
Outline: as §2

[11] = tested on: redroot pigweed (Amaranthus retroflexus L.): AMARE; assay: Test Example 1 pre-emergence herbicidal activity, AMARE; details: Rate 63 g a.i./ha, visually observed 20th to 23rd day after application
Outline: as §2

[12] = tested on: barnyardgrass (Echinochiloa oryzicola: ECHOR); assay: Test Example 3 water application herbicidal activity (paddy), ECHOR; details: 63 g a.i./ha, water application under submerged condition at 0.5 leaf stage, visually observed 14th day after application; 0 = untreated control, 100 = complete kill
Outline: as §4

[13] = tested on: soybean (Glycine max Merr.): GLXMA; assay: Test Example 1 pre-emergence herbicidal activity, GLXMA; details: Rate 63 g a.i./ha, visually observed 20th to 23rd day after application
Outline: as §2

[14] = tested on: barnyardgrass (Echinochloa crus-galli L.): ECHCG; assay: Test Example 1 pre-emergence herbicidal activity, ECHCG; details: Rate 63 g a.i./ha, visually observed 20th to 23rd day after application
Outline: as §2

[15] = tested on: corn (Zea mays L.): ZEAMX; assay: Test Example 1 pre-emergence herbicidal activity, ZEAMX; details: Rate 63 g a.i./ha, visually observed 20th to 23rd day after application
Outline: as §2

[16] = tested on: corn (Zea mays L.), ZEAMX; assay: Test Example 2 post-emergence (foliage treatment) herbicidal activity, ZEAMX; details: 63 g a.i./ha
Outline: as §1

[17] = tested on: crabgrass (Digitaria sanguinalis L.), DIGSA; assay: Test Example 2 post-emergence (foliage treatment) herbicidal activity, DIGSA; details: 63 g a.i./ha
Outline: as §3

[18] = tested on: rice (Oryza sativa L.), ORYSA; assay: Test Example 2 post-emergence (foliage treatment) herbicidal activity, ORYSA; details: 63 g a.i./ha
Outline: as §3

[19] = tested on: velvetleaf (Abutilon theophrasti), ABUTH; assay: Test Example 2 post-emergence (foliage treatment) herbicidal activity, ABUTH; details: 63 g a.i./ha
Outline: as §1

[20] = tested on: green foxtail (Setaria viridis L.): SETVI; assay: Test Example 1 pre-emergence herbicidal activity, SETVI; details: Rate 63 g a.i./ha, visually observed 20th to 23rd day after application
Outline: as §2

[21] = tested on: prickly sida (Sida spinosa L.), SIDSP; assay: Test Example 2 post-emergence (foliage treatment) herbicidal activity, SIDSP; details: 63 g a.i./ha
Outline: as §1

[22] = tested on: soybean (Glycine max Merr.), GLXMA; assay: Test Example 2 post-emergence (foliage treatment) herbicidal activity, GLXMA; details: 63 g a.i./ha
Outline: as §1

[23] = tested on: wheat (Triticum aestivum L.): TRZAX; assay: Test Example 1 pre-emergence herbicidal activity, TRZAX; details: Rate 63 g a.i./ha, visually observed 20th to 23rd day after application
Outline: as §2

[24] = tested on: rice (Oryza sativa L.: ORYSA); assay: Test Example 3 water application herbicidal activity (paddy), transplanted rice ORYSA; details: 63 g a.i./ha, water application 4th day after transplantation of 2 leaf stage rice, visually observed 21st day after application; 0 = untreated control, 100 = complete kill
Outline: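 Rice at 2-leaf stage is transplanted into flooded puddled soil and treated by water application 4 days later, at a predetermined active-ingredient dose. Crop injury is rated visually as growth control (0–100%) 21 days after treatment.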

Compound	growth controlling degree, SETVI [1] [%]	Pre-emergence Herbicidal Activity ABUTH (growth controlling degree) [2] [%]	growth controlling degree, AMARE [3] [%]	growth controlling degrees (%) SCPJO [4] [%]	growth controlling degree, TRZAX [5] [%]	growth controlling degrees (%) SAGPY [6] [%]	growth controlling degree, ECHCO [7] [%]	Pre-emergence Herbicidal Activity SIDSP (growth controlling degree) [8] [%]	Pre-emergence Herbicidal Activity DIGSP (growth controlling degree) [9] [%]	Pre-emergence Herbicidal Activity ORYSA (growth controlling degree) [10] [%]	Pre-emergence Herbicidal Activity AMARE (growth controlling degree) [11] [%]	growth controlling degrees (%) ECHOR [12] [%]	Pre-emergence Herbicidal Activity GLXMA (growth controlling degree) [13] [%]	Pre-emergence Herbicidal Activity ECHCG (growth controlling degree) [14] [%]	Pre-emergence Herbicidal Activity ZEAMX (growth controlling degree) [15] [%]	growth controlling degree, ZEAMX [16] [%]	growth controlling degree, DIGSP [17] [%]	growth controlling degree, ORYSA [18] [%]	growth controlling degree, ABUTH [19] [%]	Pre-emergence Herbicidal Activity SETVI (growth controlling degree) [20] [%]	also measured
Cn1nc(-c2c(F)cc(Cl)c(OC(F)F)c2NC(=O)C(F)(F)F)c(Cl)c1OC(F)F [Compound 1-83]	100	80	100	95	10	80	100	100	100	60	100	100	60	90	20	80	100	50	100	100	growth controlling degree, SIDSP [21]: 100%; growth controlling degree, GLXMA [22]: 60%; Pre-emergence Herbicidal Activity TRZAX (growth controlling degree) [23]: 10%; growth controlling degrees (%) ORYSA [24]: 50%
COc1c(Cl)cc(F)c(-c2nn(C)c(OC(F)F)c2Cl)c1NC(=O)c1ccccc1F [Compound 1-22]	100	100	100	95	40	98	100	100	100	50	100	100	50	80	20	90	100	95	100	100	growth controlling degree, SIDSP [21]: 100%; growth controlling degree, GLXMA [22]: 98%; Pre-emergence Herbicidal Activity TRZAX (growth controlling degree) [23]: 10%; growth controlling degrees (%) ORYSA [24]: 40%
COc1c(Cl)cc(F)c(-c2nn(C)c(OC(F)F)c2Cl)c1NC(=O)c1cccc(Br)c1 [Compound 1-27]	100	70	100	70	30	98	100	80	100	20	100	100	20	30	0	60	100	80	100	80	growth controlling degree, SIDSP [21]: 70%; growth controlling degree, GLXMA [22]: 70%; Pre-emergence Herbicidal Activity TRZAX (growth controlling degree) [23]: 0%; growth controlling degrees (%) ORYSA [24]: 50%
Cn1nc(-c2c(F)cc(Cl)c(OC(F)F)c2NCc2ccccc2)c(Cl)c1OC(F)F [Compound 1-88]	100	70	100	80	30	60	100	80	98	10	100	100	40	50	0	60	98	30	100	70	growth controlling degree, SIDSP [21]: 100%; growth controlling degree, GLXMA [22]: 60%; Pre-emergence Herbicidal Activity TRZAX (growth controlling degree) [23]: 0%; growth controlling degrees (%) ORYSA [24]: 20%
C#CCN(C=O)c1c(OC(F)F)c(Cl)cc(F)c1-c1nn(C)c(OC(F)F)c1Cl [Compound 1-85]	100	30	100	60	40	70	80	70	100	10	100	100	0	60	10	40	80	60	100	70	growth controlling degree, SIDSP [21]: 95%; growth controlling degree, GLXMA [22]: 60%; Pre-emergence Herbicidal Activity TRZAX (growth controlling degree) [23]: 0%; growth controlling degrees (%) ORYSA [24]: 70%
COc1c(Cl)cc(F)c(-c2nn(C)c(OC(F)F)c2Cl)c1N(C=O)C(C)C [Compound 1-8]	100	100	100	60	50	20	70	100	60	60	100	80	70	70	40	40	60	60	100	100	growth controlling degree, SIDSP [21]: 100%; growth controlling degree, GLXMA [22]: 70%; Pre-emergence Herbicidal Activity TRZAX (growth controlling degree) [23]: 50%; growth controlling degrees (%) ORYSA [24]: 30%
